According to patent US20060241143A1, “Combination of paroxetine and 2-methoxy-5-(5-trifluoromethyl-tetrazol-1-yl-benzyl)-(2s-phenyl-piperidin-3s-yl)-amine for treatment of depression and/or anxiety” (priority 2003, published 2006):

System: mongolian gerbils
Assay: gerbil social interaction model (time spent in active social interactions)
Type: in vivo
Conditions: 0.03 mg/kg i.p. (as free base), one hour after administration
Procedure: Paroxetine hydrochloride hemihydrate (0.3 mg/kg p.o of the paroxetine measured as the free base), 2-methoxy-5-(5-trifluoromethyl-tetrazol-1-yl-benzyl)]-(2S-phenyl-piperidin-3S-yl)-amine dihydrochloride (hereinafter compound A) (0.03 mg/kg i.p of the compound A measured as the free base) and a combination of paroxetine (0.3 mg/kg p.o. of the paroxetine measured as the free base) and compound A (0.03 mg/kg i.p. of the compound A measured as the free base) were administered independently in mongolian gerbils to assess the effect on time spent in active social interactions.
The results obtained one hour after administration, expressed as a percentage variation of the time spent in active social interactions by each animal in respect to the value obtained by treatment of control animals, are summarised in table 1.

COc1ccc(-n2nnnc2C(F)(F)F)cc1CN[C@H]1CCCN[C@H]1c1ccccc1.Cl.Cl [Compound A]
% Variation of the time spent in active social interactions in respect to control animals: +19.9%
